Assays:
[1] = biological target: T1, caspase-3 (Homo sapiens, UniProt P42574); experiment: Caspase-3 progress curve assay; type: biochemical; conditions: substrate Z-DEVD-AFC; NI = no inhibition
T1 construct: made in house; host or cells: E. coli
T1 sequence (P42574 29-175 limits assumed): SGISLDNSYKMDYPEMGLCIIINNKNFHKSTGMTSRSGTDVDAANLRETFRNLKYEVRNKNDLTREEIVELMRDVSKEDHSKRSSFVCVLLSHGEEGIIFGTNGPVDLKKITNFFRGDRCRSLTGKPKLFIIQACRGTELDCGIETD
T1 sequence (P42574 176-277 limits assumed): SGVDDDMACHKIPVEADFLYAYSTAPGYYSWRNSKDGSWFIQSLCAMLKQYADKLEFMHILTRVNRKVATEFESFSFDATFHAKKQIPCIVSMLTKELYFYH
Procedure: Caspase-3, -6, and -8. Caspase-3, -6 and -8 were expressed in E. coli and purified according to methods previously described by Stennicke and Salvesen. Assays using the fluorogenic substrate Z-DEVD-AFC (λex=400 nm, λem=505 nm) were carried out on a Molecular Devices fMax fluorescence microplate reader. Inhibition rates and equilibria were determined by the progress curve method. The standard 100 μL reaction was started by adding enzyme to a mixture of substrate (final concentration of Z-DEVD-AFC 100 μM) and various amounts of inhibitor in buffer (50 mM Hepes, 100 mM NaCl, 0.1% (w/v) CHAPS, sucrose 10% (w/v), and 10 mM DTT, at pH 7.4). The caspases were pre-activated for 10 min at 37° C. in the presence of 10 mM DTT.

[2] = biological target: T2, caspase-1 (Homo sapiens, UniProt P29466, D381E); experiment: Caspase-1 progress curve assay; type: biochemical; conditions: D381E variant, substrate Ac-YVAD-AMC, 30° C.
T2 construct: His tag (N); made in house; host or cells: E. coli
T2 sequence (P29466 120-297 limits assumed): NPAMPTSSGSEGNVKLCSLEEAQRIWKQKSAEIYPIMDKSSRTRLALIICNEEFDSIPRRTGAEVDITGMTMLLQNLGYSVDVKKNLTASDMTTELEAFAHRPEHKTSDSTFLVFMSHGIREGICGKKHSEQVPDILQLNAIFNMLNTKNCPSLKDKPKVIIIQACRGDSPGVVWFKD
T2 sequence (P29466 317-404 D381E limits assumed): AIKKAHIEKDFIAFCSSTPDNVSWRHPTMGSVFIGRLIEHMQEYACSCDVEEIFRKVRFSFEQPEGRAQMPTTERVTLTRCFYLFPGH
Text: Caspase-1. The preparation of the autolytically stable caspase-1 variant used in these studies has been described previously. Briefly, the variant contains a mutation (D381E) which renders it resistant to autolytic inactivation, but has no detectable affect on enzyme activity as compared to the naturally occurring enzyme. The enzyme variant was expressed in E. coli, purified first by immobilized metal chromatography via the N-terminal N-His tag, treated with excess oxidized glutathione to stabilize the reactive thiolate, and then re-purified by size-exclusion chromatography.
Inhibition data was measured using the progress curve assay method. Serial dilutions of each compound were prepared using an initial 8-fold dilution of a DMSO stock into HGE (100 mM HEPES,20% glycerol v/v, 0.5 mM EDTA), followed by seven serial two-fold dilutions into HGE and 12.5% DMSO, thus maintaining constant DMSO through the dilution series. Ten μL of diluted stocks or of vehicle (HGE and 12.5% DMSO) were placed in triplicate onto a 96-well microtiter plate, allowing several compounds to be tested on each plate. The plate was covered to minimize evaporation, and the plate was pre-warmed to 30° C. for 20 minutes. Enzyme was diluted into 10.0 mL of assay buffer (HGE, 5 mM DTT, plus 15 μM Ac-YVAD-AMC, 2 nM approximate final enzyme concentration), and this activated reaction mixture was added to the plate at 90 μL/well. Progress of substrate hydrolysis was monitored for 900 s in a LabSystems (Needham, Mass.) Fluoroskan Ascent fluorescent plate-reader using 385 and 460 nm excitation and emission filters, respectively, and a photomultiplier gain setting of 10. Triplicate curves were averaged and fit by nonlinear regression to the equation for irreversible inactivation shown below.
[formula] where F0 was routinely fixed to zero, since fluorescence values were always adjusted to an origin of 0. The second order rate constant kon (M^−1s^−1) was obtained from the slopes by linear regression, and errors represent the standard deviation of the regression slope.

Compound	k2 caspase-3 [1] [M⁻¹ s⁻¹]	k2 caspase-1 [2] [M⁻¹ s⁻¹]
CC(C)CC(NC(=O)[C@H]1O[C@@H]1C(=O)N(CC(=O)O)NC(=O)[C@H](C)NC(=O)[C@@H](NC(=O)CCc1ccccc1)C(C)C)C(N)=O (stereo partly drawn) [23k, (2S,3S)-2-(3-Methyl-1-amido-butylcarbamoyl)-3-(N^2-(3-phenylpropanoylvalylalanyl)-N^1-carboxymethylhydrazinocarbonyl)oxirane]	420 ± 6	26090 ± 2562
CCOC(=O)[C@@H]1O[C@H]1C(=O)N(CC(=O)O)NC(=O)[C@@H](NC(=O)[C@H](CCC(=O)O)NC(=O)[C@H](CC(=O)O)NC(=O)OCc1ccccc1)C(C)C [25c (R,R), (2R,3R)-3-(N^2-(N-Benzyloxycarbonylaspartylglutamylvalyl)-N^1-carboxymethylhydrazinocarbonyl)oxirane-2-carboxylic Acid Ethyl Ester]	464420 ± 186300	4320 ± 830
CC[C@H](C)[C@H](NC(=O)OCc1ccccc1)C(=O)N[C@@H](CCC(=O)O)C(=O)N[C@H](C(=O)NN(CC(=O)O)C(=O)[C@@H]1O[C@H]1C(=O)OCc1ccccc1)[C@@H](C)O [27d (R,R), (2R,3R)-3-(N^2-(N-Benzyloxycarbonylisoleucylglutamylthreonyl)-N^1-carboxymethylhydrazinocarbonyl)oxirane-2-carboxylic Acid Benzyl Ester]	3115 ± 125	13000 ± 980
CC(C)[C@H](NC(=O)[C@H](CCC(=O)O)NC(=O)[C@H](CC(=O)O)NC(=O)OCc1ccccc1)C(=O)NN(CC(=O)O)C(=O)[C@H]1O[C@@H]1C(=O)NCc1ccccc1 [25g, (2S,3S)-2-(2-Benzylcarbamoyl)-3-(N^2-(N-benzyloxycarbonylaspartylglutamylvalyl)-N^1-carboxymethylhydrazinocarbonyl)oxirane]	1097820 ± 94860	25420 ± 4013
CC[C@H](C)[C@H](NC(=O)OCc1ccccc1)C(=O)N[C@@H](CCC(=O)O)C(=O)N[C@H](C(=O)NN(CC(=O)O)C(=O)[C@H]1O[C@@H]1C(=O)OCc1ccccc1)[C@@H](C)O [27d (S,S), (2S,3S)-3-(N^1-(N-Benzyloxycarbonylisoleucylglutamylthreonyl)-N^1-carboxymethylhydrazinocarbonyl)oxirane-2-carboxylic Acid Benzyl Ester]	9545 ± 960	45788
CC(C)[C@H](NC(=O)[C@H](CCC(=O)O)NC(=O)[C@H](CC(=O)O)NC(=O)OCc1ccccc1)C(=O)NN(CC(=O)O)C(=O)[C@H]1O[C@@H]1C(=O)N[C@@H](Cc1ccccc1)C(N)=O [25l, Cbz-Asp-Glu-Val-AAsp-(S,S)-EP-CO-Phe-NH2]	722180 ± 340860	9250 ± 2835
CCOC(=O)[C@@H]1O[C@H]1C(=O)N(CC(=O)O)NC(=O)[C@@H](NC(=O)[C@H](CCC(=O)O)NC(=O)[C@@H](NC(=O)OCc1ccccc1)[C@@H](C)CC)[C@@H](C)O [27c (R,R), (2R,3R)-3-(N^2-(N-Benzyloxycarbonylisoleucylglutamylthreonyl)-N^1-carboxymethylhydrazinocarbonyl)oxirane-2-carboxylic Acid Ethyl Ester]	2630 ± 365	13260 ± 3684
CC(C)C[C@H](NC(=O)OCc1ccccc1)C(=O)N[C@@H](CCC(=O)O)C(=O)N[C@H](C(=O)NN(CC(=O)O)C(=O)[C@H]1O[C@@H]1C(=O)OCc1ccccc1)[C@@H](C)O [26d, (2S,3S)-3-(N^2-(N-Benzyloxycarbonylleucylglutamylthreonyl)-N^1-carboxymethylhydrazinocarbonyl)oxirane-2-carboxylic Acid Benzyl Ester]	3520 ± 600	43500 ± 2150

From patent US7056947B2, “Aza-peptide epoxides” (Georgia Tech Research Corp., priority 2002, dated 2006)
